Laboratory results as given in ChEMBL document CHEMBL4507268 (2021).

What was measured:
[1] = biological target: Sodium-dependent serotonin transporter (Homo sapiens) (UniProt P31645); details: Compound concentration 10.0 uM
[2] = biological target: CDK6/cyclin D3 (Homo sapiens) (UniProt P30281+Q00534); details: Compound concentration 1.0 uM
[3] = biological target: Cyclin-dependent kinase 14/Cyclin-Y (Homo sapiens) (UniProt O94921+Q8ND76); details: Compound concentration 1.0 uM
[4] = biological target: LIM domain kinase 1 (Homo sapiens) (UniProt P53667); details: Compound concentration 1.0 uM
[5] = biological target: Maternal embryonic leucine zipper kinase (Homo sapiens) (UniProt Q14680); details: Compound concentration 1.0 uM
[6] = biological target: T1, Myosin light chain kinase (Homo sapiens) (UniProt Q32MK0); details: Compound concentration 1.0 uM
T1 sequence (whole entry): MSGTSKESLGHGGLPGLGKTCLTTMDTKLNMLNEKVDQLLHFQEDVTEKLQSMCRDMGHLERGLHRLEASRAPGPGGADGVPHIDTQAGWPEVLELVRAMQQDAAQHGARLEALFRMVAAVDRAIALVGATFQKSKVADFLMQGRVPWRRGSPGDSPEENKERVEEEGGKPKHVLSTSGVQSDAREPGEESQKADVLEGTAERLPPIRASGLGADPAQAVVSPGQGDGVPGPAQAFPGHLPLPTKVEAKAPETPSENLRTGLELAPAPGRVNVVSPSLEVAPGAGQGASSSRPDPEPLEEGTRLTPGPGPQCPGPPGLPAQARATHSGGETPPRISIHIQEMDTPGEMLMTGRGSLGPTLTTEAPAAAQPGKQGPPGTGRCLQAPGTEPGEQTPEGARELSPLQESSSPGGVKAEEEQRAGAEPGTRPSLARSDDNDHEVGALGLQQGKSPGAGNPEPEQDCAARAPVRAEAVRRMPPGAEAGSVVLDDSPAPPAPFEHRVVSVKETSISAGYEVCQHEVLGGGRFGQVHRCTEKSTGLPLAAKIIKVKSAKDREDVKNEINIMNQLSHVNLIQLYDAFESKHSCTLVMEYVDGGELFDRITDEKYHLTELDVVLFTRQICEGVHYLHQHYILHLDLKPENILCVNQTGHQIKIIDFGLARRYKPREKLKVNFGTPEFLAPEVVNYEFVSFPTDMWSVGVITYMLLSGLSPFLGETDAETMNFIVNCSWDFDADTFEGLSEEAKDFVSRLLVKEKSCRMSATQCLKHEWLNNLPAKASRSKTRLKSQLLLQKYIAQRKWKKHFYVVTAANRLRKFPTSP

[7] = biological target: Mitogen-activated protein kinase 11 (Homo sapiens) (UniProt Q15759); details: Compound concentration 1.0 uM
[8] = biological target: Serine/threonine-protein kinase SIK2 (Homo sapiens) (UniProt Q9H0K1); details: Compound concentration 1.0 uM
[9] = biological target: T2, Dual specificity protein kinase TTK (Homo sapiens) (UniProt P33981); details: Compound concentration 1.0 uM
T2 sequence (whole entry): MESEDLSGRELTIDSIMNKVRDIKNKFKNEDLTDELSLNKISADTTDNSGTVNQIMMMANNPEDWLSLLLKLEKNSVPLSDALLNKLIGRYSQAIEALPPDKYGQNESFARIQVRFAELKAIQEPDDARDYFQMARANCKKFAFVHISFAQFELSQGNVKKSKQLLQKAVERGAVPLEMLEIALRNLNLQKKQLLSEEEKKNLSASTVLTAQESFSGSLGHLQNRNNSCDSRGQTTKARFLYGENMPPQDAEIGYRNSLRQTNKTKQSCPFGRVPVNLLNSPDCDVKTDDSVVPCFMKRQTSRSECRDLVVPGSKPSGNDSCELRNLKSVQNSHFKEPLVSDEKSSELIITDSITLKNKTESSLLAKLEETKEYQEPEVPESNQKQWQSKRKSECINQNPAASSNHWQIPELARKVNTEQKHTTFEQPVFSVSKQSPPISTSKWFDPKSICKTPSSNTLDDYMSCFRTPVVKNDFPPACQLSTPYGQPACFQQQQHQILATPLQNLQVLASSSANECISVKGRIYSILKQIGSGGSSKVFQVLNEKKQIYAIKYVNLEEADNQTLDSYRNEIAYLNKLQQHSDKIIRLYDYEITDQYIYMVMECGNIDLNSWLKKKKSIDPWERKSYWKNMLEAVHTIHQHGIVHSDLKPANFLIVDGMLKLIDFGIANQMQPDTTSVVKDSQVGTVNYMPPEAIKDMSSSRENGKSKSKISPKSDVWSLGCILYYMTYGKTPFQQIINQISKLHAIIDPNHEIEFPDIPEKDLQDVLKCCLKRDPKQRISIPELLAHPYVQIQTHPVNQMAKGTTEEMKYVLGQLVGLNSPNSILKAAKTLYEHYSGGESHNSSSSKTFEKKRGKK

[10] = biological target: Non-receptor tyrosine-protein kinase TYK2 (Homo sapiens) (UniProt P29597); details: Compound concentration 1.0 uM
[11] = biological target: PI3-kinase p110-delta/p85-alpha (Homo sapiens) (UniProt P27986+O00329); details: Compound concentration 1.0 uM

Sodium-dependent serotonin transporter (Homo sapiens), sequence (P31645 whole entry, looked up): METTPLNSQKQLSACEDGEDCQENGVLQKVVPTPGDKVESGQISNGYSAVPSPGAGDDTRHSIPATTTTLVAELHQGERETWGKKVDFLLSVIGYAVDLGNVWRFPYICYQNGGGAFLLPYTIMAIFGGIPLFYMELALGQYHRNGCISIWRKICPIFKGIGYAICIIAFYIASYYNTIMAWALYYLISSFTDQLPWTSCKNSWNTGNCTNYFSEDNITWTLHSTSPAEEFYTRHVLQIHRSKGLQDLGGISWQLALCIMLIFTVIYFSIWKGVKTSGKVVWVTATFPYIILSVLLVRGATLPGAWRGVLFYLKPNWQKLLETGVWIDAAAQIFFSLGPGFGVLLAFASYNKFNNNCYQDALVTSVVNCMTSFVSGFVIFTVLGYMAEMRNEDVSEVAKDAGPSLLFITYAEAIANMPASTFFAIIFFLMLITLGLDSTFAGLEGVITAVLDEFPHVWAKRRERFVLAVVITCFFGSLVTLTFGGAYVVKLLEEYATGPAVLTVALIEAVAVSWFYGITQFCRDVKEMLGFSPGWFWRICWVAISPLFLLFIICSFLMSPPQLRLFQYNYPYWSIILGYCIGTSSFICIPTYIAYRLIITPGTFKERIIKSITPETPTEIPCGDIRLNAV
Maternal embryonic leucine zipper kinase (Homo sapiens), sequence (Q14680 whole entry, looked up): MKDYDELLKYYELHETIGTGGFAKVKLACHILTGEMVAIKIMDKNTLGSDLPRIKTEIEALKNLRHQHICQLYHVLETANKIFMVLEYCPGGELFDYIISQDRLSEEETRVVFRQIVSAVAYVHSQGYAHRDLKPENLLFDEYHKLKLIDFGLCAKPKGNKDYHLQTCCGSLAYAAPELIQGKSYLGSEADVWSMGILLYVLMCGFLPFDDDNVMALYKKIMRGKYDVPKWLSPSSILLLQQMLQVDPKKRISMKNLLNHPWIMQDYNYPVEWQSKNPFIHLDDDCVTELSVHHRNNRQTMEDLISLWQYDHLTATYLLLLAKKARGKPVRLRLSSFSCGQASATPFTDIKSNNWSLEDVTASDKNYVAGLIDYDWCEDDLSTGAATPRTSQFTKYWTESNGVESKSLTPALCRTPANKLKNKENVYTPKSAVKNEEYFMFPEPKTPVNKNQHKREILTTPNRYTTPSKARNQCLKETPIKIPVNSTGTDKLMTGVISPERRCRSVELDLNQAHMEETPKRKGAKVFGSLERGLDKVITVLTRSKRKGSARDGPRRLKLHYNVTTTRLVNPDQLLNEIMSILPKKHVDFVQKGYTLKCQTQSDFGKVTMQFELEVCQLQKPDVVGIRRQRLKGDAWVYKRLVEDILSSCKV
LIM domain kinase 1 (Homo sapiens), sequence (P53667 whole entry, looked up, the tested form may be a part): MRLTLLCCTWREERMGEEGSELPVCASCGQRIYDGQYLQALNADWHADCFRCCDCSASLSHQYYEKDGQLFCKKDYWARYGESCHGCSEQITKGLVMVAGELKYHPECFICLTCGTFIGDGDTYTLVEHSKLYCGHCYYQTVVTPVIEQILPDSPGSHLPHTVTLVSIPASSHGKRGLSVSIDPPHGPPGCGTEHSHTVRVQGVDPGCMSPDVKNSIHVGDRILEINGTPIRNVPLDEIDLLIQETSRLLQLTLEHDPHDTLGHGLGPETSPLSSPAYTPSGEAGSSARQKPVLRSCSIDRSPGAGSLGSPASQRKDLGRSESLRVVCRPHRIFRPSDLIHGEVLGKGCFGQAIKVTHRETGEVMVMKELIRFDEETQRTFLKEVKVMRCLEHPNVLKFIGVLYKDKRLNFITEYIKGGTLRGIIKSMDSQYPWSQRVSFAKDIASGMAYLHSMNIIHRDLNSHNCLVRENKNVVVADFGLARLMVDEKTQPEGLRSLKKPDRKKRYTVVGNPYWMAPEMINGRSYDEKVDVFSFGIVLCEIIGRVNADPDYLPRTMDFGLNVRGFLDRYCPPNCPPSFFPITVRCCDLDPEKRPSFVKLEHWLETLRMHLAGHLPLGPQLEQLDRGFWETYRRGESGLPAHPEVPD
Mitogen-activated protein kinase 11 (Homo sapiens), sequence (Q15759 whole entry): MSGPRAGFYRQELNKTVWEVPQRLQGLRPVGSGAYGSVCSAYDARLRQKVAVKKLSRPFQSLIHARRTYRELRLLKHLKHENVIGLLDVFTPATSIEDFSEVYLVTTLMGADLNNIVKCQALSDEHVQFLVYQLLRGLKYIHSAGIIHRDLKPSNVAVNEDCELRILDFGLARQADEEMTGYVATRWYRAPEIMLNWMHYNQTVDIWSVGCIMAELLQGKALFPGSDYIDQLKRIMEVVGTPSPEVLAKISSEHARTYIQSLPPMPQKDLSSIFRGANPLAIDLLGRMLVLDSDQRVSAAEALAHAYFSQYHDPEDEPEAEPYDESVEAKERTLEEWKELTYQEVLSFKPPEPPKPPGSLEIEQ
Non-receptor tyrosine-protein kinase TYK2 (Homo sapiens), sequence (P29597 whole entry): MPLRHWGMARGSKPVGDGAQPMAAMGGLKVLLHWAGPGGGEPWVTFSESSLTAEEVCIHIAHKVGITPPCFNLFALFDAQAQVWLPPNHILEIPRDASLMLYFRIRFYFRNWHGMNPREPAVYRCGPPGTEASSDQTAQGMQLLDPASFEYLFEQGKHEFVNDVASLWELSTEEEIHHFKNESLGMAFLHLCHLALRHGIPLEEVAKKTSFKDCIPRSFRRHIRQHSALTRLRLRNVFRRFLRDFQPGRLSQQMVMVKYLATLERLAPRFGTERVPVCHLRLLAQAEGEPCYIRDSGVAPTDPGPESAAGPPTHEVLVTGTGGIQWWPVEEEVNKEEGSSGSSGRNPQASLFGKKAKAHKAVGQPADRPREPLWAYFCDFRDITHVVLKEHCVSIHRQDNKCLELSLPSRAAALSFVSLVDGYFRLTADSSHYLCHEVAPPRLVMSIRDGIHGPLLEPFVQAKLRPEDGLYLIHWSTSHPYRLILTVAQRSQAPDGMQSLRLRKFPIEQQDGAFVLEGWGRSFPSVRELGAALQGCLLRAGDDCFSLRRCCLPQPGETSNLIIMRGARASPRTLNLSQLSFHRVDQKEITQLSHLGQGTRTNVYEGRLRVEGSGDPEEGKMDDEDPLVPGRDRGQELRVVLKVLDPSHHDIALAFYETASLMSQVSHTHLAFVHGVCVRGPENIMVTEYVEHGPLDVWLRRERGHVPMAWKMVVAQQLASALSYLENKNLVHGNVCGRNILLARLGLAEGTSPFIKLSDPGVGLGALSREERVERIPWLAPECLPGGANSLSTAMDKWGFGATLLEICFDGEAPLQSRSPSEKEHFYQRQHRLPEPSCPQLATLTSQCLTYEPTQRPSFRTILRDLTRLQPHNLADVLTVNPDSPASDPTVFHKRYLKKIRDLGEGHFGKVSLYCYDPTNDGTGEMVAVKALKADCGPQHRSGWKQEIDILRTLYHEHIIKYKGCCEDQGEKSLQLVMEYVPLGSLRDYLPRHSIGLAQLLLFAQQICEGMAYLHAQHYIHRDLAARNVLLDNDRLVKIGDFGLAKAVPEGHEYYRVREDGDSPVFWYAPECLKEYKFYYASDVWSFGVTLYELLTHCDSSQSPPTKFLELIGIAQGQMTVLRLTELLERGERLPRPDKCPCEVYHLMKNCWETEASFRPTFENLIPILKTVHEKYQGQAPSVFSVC
Serine/threonine-protein kinase SIK2 (Homo sapiens), sequence (Q9H0K1 whole entry, looked up): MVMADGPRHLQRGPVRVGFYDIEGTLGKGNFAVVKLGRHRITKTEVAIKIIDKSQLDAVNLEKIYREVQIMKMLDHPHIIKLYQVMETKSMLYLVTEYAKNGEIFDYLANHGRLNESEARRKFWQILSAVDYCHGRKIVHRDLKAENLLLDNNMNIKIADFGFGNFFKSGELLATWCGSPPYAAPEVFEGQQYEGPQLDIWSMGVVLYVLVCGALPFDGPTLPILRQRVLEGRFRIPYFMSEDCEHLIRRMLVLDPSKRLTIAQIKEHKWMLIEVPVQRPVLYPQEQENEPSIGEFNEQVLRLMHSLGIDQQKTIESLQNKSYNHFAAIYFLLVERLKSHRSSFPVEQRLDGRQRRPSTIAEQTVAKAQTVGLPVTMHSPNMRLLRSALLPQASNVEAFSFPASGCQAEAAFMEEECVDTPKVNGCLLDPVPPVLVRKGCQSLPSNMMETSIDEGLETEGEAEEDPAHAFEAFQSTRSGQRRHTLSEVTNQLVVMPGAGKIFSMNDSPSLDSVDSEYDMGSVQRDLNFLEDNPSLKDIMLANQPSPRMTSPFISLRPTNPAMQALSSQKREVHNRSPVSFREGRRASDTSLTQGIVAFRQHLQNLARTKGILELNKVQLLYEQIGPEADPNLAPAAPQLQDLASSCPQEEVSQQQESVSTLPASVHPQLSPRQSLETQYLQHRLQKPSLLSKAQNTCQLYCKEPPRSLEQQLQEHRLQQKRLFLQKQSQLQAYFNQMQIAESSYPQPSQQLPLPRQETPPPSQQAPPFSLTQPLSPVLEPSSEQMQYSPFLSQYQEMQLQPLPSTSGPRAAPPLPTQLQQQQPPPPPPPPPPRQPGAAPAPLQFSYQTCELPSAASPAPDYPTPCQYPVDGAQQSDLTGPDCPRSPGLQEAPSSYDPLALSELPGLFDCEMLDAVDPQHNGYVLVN

CN1CCN(c2cnc3c(C4CCN(C(=O)c5ccc(OC(F)(F)F)cc5N)CC4)ncnc3c2)CC1 [BAY-885]
inactive: inhibition [1] 32.4% | % residual kinase activity [2] 96% | % residual kinase activity [3] 117% | % residual kinase activity [4] 93% | % residual kinase activity [5] 105% | % residual kinase activity [6] 107% | % residual kinase activity [7] 103% | % residual kinase activity [8] 101% | % residual kinase activity [9] 93% | % residual kinase activity [10] 110% | % residual kinase activity [11] 102%
